Data as given in patent US9326972B2, “Use of phenylmethimazoles, methimazole derivatives, and tautomeric cyclic thiones for the treatment of autoimmune/inflammatory diseases associated with toll-like receptor overexpression” (Ohio University, priority 2004, dated 2016).

How the values were obtained:
[1] = system: NF-κB p65/p50 complex; assay: EMSA of NF-κB p65/p50 complex formation in FRTL-5 thyrocytes; assay type: cell-based, rat; conditions: FRTL-5, EMSA, 6 hours
[2] = system: Stat1; assay: Stat1 phosphorylation in Influenza A infected FRTL-5 thyrocytes (Western blot); assay type: cell-based, rat
Method: FIG. 6. Phenylmethimazole (C10) has no effect on the ability of Poly (I:C) or LPS to increase formation of the p50/p65 heterodimer complex of […] (A), but can inhibit the Influenza A induced activation of Stat1 phosphorylation in FRTL-5 thyrocytes (B). In (A), EMSA were performed using nuclear extracts from cells which were treated with nothing (none), Poly (I:C) (100 μg/ml), LPS (100 ng/ml), in the presence of DMSO, C10, or MMI for 6 hours. Probe was the NF-κβ consensus oligonucleotide. The p65/p50 and p50/p50 complexes are indicated and were identified as in FIG. 2B by antibody inhibition or supershifts of the p50 or p65 components of the induced complexes. In (B), cells were infected with Influenza A for 24 hours and then DMSO or C10 were added to the medium for 6 hours. In each, 25 μg of nuclear extracts were used in Western blots performed to detect Stat1 PY701. Blots were then stripped and reprobed for unphosphorylated Stat1. The first lane is a non infected control (−).
Immunoprecipitation and Western Blot Analysis. Whole cell lysates were prepared in lysis buffer (10 mM Tris-HCl (pH 7.5), 150 mM NaCl, 1% NP-40) containing protease inhibitors. Nuclear extracts were prepared using the NE-PER extraction reagents with protease inhibitors stated below (Pierce Chemical Co., Rockford, Ill.). […]

[3] = system: C57BL/6J mice; assay: LPS-induced endotoxic shock in C57BL/6J mice: survival and signs of shock; assay type: in vivo, mouse; conditions: for Survival % of Control: Toxic Shock model, 10 animals, 1.5 days
[4] = system: serum cytokines; assay: Serum pro-inflammatory cytokines in LPS-treated mice (ELISA); assay type: in vivo, mouse; conditions: LPS-treated mice of Table 5
Method: Quantification of pro-inflammatory cytokines in blood: The cytokines TNF-α, IL-1β, IL-6, IFN-γ and IL-12 were quantified in serum using ELISA techniques. Blood was collected from the inner canthus of the eye under anesthesia and serum saved at −20° C. until use. The ELISA kits were from R&D System and the results were expressed in pg/ml serum.

[5] = LPS 20 mg/kg i/p, drug i/p 30 min before LPS, 8 mice per group

Compound: Cn1c(-c2ccccc2)cnc1S [Compound C10, 5-Phenylmethimazole]
- effect on Poly (I:C)- or LPS-increased p65/p50 complex formation [1]: did not have any significant effect
- virus- or IFN-β-stimulated Stat1 phosphorylation (PY701) ([2]; FRTL-5, Influenza A 24 hours then C10 6 hours): profound inhibitor
- Stat1 serine phosphorylation at residue 727 ([2]; FRTL-5, Influenza A virus 24 hours, 1 mM C10): reduce
- survival / protection from death after LPS injection ([3]; C10 1 mg/kg i/p 30 minutes before LPS 20 mg/kg, 36 hours): 100%
- survival (cases) ([3]; C10 0.1 to 1 mg/kg administered 30 min to 12 hours after lethal LPS injection): 100%
- duration of survival observed ([3]; C10-treated LPS mice, as long as observed): ≥ 4 weeks
- survival ([3]; C10 daily doses of 0.1 or 1 mg/kg, 12 hours after challenge with LPS): 100%
- Number of surviving mice, 6 hrs [3, 5]: 8
- Number of surviving mice, 12 hrs [3, 5]: 8
- Signs of shock at 12 hours, % of Animals ([3]; LPS-challenged mice): 100 % of Animals
- prevention of death vs freshly made C10 i.p. in DMSO ([3]; LPS-induced toxic shock, oral excipient-solubilized C10 stored diluted at 4° C. for 8 weeks, 1 mg/kg): as effective
- Survival % of Control ([3]; 1 mg/kg, Ip diluted & stored in DMSO 1 wk): 0%
- Survival % of Control ([3]; 1 mg/kg, Ip freshly diluted in DMSO): 100%
- Survival % of Control ([3]; 1 mg/kg, Oral diluted & stored in excipient 6 wks): 100%
- Survival % of Control ([3]; 1 mg/kg, Oral stored in excipient 1 week): 100%
- serum cytokine levels (IL-1β, IL-6, TNF-α, IFN-γ, IL-12) by ELISA [4]: reduced these cytokine levels to levels in normal control mice
